Non-standard residues stand in square brackets, D forms with d. Residues, ends and D or L forms follow the SMILES beside them.

One assay concerns U-251MG cells. Nature of the assay: Cell death by PI staining and flow cytometry, U-251MG. The format is cell-based, human. To be noted: 6 h at 37°C, serum-free medium, means ± SD (n=3), Fig 1H, read-out: IC50 for inducing cell death. An excerpt:
Figure 1 VDAC1-based peptides induce dramatic cell death of several brain tumor-derived cell lines but to lesser extent in primary brain cells A. IHC staining of VDAC1 of human normal brain (n=13) or glioblastoma (n=41) in tissue array slides (Biomax), as described in Materials and methods available online in Supplemental information. Percentages of sections stained at the intensity indicated are shown. […] The VDAC1-derived sequences Δ(1-14)N-terminus and LP4 are in green and pink, respectively. The cell-penetrating peptides Antp and Tf are in orange and blue, respectively. The loop shape of LP4 stabilized by a tryptophan zipper is in purple. The amino acids of Δ(1-14)N-terminus, LP4 and Antp are in the D configuration. The sequences of D-LP4 and Retro-D-LP4 are presented below. C. […] Cells were harvested, washed twice with PBS and cell death was analyzed by propidium iodide (PI) staining and flow cytometry. […] Cells were harvested, washed twice with PBS and cell death was analyzed by PI staining and flow cytometry. […]
Cells (6×10^5 /ml) were incubated in 500 μl serum-free medium with the peptide of interest for 6 h at 37°C in the presence of 5% CO2. The cells were then trypsinized, centrifuged (1500xg, 5 min), washed with PBS and analyzed for cell death using propidium iodide (PI) staining and flow cytometer (Beckton-Dickinson, San Jose, CA) and BD CellQuest Pro software. […]

The next assay relates to SH-SY5Y cells. In words: Apoptosis by acridine orange/ethidium bromide staining, SH-SY5Y. The format is cell-based, human. The conditions noted are these: 3 h, Suppl Fig 2B. How it is done: […] The cells were then trypsinized, centrifuged (1500xg, 5 min), washed with PBS and analyzed for cell death using propidium iodide (PI) staining and flow cytometer (Beckton-Dickinson, San Jose, CA) and BD CellQuest Pro software. Apoptotic cell death was also analyzed by PI and annexin V-FITC staining, and by acridine orange and ethidium bromide staining and light microscopy (Olympus LX2-KSP).
Supplementary Figure 2: Mode of action of VDAC1-based peptides. […]
detachment. SH-SY5Y cells (4×10^4/ml) were grown on cover slips, transfected with plasmid pEGFP-HK-I and after 24 h, were incubated […]
The final DMSO concentration in control and peptide-treated cells was 0.07%. Fixed cells were stained with DAPI and visualized by confocal microscopy (Olympus 1X81). Arrows indicate cells […]
showing diffusion of HK-I-GFP. B-C. […] B. SH-SY5Y cells were treated with the indicated […]
Arrows and arrowheads indicate cells with membrane blebbing (early apoptotic state) and late apoptotic states, respectively. C. Morphological analysis of apoptosis by electron microscopy (EM). For transmission EM, U-87MG cells (1.6 x10^6 /ml) were incubated with the indicated concentrations of D-ΔN-Ter-Antp peptide or DMSO (0.3% final concentration) for 6 h in serum-free medium. […]

Turning to `CC[C@@H](C)[C@@H](NC(=O)[C@@H](CCCCN)NC(=O)[C@H](NC(=O)[C@@H](CCC(N)=O)NC(=O)[C@@H](CCCNC(=N)N)NC(=O)[C@@H](CC(C)C)NC(=O)CNC(=O)[C@@H](Cc1ccccc1)NC(=O)CNC(=O)[C@@H](Cc1ccc(O)cc1)NC(=O)CNC(=O)[C@@H](CCCCN)NC(=O)[C@H](NC(=O)[C@@H](Cc1ccccc1)NC(=O)[C@H](NC(=O)[C@@H](CC(=O)O)NC(=O)[C@H](N)CCCNC(=N)N)C(C)C)[C@H](C)O)[C@H](C)CC)C(=O)N[C@H](Cc1c[nH]c2ccccc12)C(=O)N[C@H](Cc1ccccc1)C(=O)N[C@H](CCC(N)=O)C(=O)N[C@H](CC(N)=O)C(=O)N[C@H](CCCNC(=N)N)C(=O)N[C@H](CCCNC(=N)N)C(=O)N[C@H](CCSC)C(=O)N[C@H](CCCCN)C(=O)N[C@H](Cc1c[nH]c2ccccc12)C(=O)N[C@H](CCCCN)C(=O)N[C@H](CCCCN)C(=O)O` [D-ΔN-Ter-Antp] (H-[dR][dD][dV][dF][dT][dK]G[dY]G[dF]G[dL][dR][dQ][dI][dK][dI][dW][dF][dQ][dN][dR][dR][dM][dK][dW][dK][dK]-OH; N-terminus and C-terminus assumed), in the assay on U-251MG cells, the IC50 worked out at 4.7 ± 0.9 µM. For the compound `CC[C@H](C)[C@H](NC(=O)[C@H](C)NC(=O)[C@@H](N)Cc1c[nH]cn1)C(=O)N[C@@H](Cc1ccc(O)cc1)C(=O)N1CCC[C@H]1C(=O)N[C@@H](CCCNC(=N)N)C(=O)N[C@@H](Cc1c[nH]cn1)C(=O)N[C@@H](CO)C(=O)N[C@@H](Cc1c[nH]c2ccccc12)C(=O)N[C@H](C(=O)N[C@@H](Cc1c[nH]c2ccccc12)C(=O)N[C@@H](CCC(=O)O)C(=O)N[C@H](CCCCN)C(=O)N[C@H](CCCCN)C(=O)N[C@H](CC(C)C)C(=O)N[C@H](CCC(=O)O)C(=O)N[C@@H](C(=O)N[C@H](C)C(=O)N[C@@H](C(=O)N[C@H](CC(N)=O)C(=O)N[C@H](CC(C)C)C(=O)N[C@H](C)C(=O)N[C@H](Cc1c[nH]c2ccccc12)C(=O)N[C@@H](C(=O)N[C@H](C)C(=O)NCC(=O)N[C@H](CC(N)=O)C(=O)N[C@H](CO)C(=O)N[C@H](CC(N)=O)C(=O)N[C@@H](CCCCN)C(=O)N[C@@H](Cc1c[nH]c2ccccc12)C(=O)N[C@H](C(=O)N[C@@H](Cc1c[nH]c2ccccc12)C(=O)N[C@@H](CCCCN)C(=O)O)[C@@H](C)O)[C@H](C)O)C(C)C)[C@H](C)O)[C@@H](C)O` [Tf-D-LP4], the “apoptosis induction, SH-SY5Y” value in the assay on SH-SY5Y cells is “induce apoptosis”.

Source of the values: article PMC5458211, “Mitochondrial VDAC1-based peptides: Attacking oncogenic properties in glioblastoma” (Oncotarget, 2017).
